Experimental data as given in BindingDB's records for doi:10.1016/j.bmcl.2006.10.074 (Abbott Laboratories, 2007).
pIC50: −log10 of the molar value.

How the values were obtained:
[1] = molecular target: 11-beta-hydroxysteroid dehydrogenase 1 (Mus musculus, UniProt P50172); assay: Human and Mouse 11beta-HSD1 SPA Assay
Protocol: (§1) Enzyme assays were performed using purified recombinant human or mouse11beta-HSD1. The fractional conversion of cortisone to cortisol was used to determine enzyme activities. The radioactive cortisol generated in the assay was captured by a monoclonal anti-cortisol antibody and SPA beads coated with anti-mouse antibodies.

[2] = molecular target: 11-beta-hydroxysteroid dehydrogenase 1 (Homo sapiens, UniProt P28845); assay: Human and Mouse 11beta-HSD1 SPA Assay; conditions: pH 7.2; 22 °C
Chain of 11-beta-hydroxysteroid dehydrogenase 1 (Homo sapiens, UniProt P28845) (P28845 whole entry): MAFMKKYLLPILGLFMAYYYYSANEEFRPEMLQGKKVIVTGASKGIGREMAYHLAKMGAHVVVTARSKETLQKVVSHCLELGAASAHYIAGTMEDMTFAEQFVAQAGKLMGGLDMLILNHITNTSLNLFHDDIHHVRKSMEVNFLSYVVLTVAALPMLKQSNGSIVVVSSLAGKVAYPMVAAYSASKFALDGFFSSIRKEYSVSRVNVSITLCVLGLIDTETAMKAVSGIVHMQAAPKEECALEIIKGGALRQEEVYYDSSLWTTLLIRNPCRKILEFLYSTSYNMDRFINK
Protocol: as §1

Chain of 11-beta-hydroxysteroid dehydrogenase 1 (Mus musculus, UniProt P50172) (P50172 whole entry): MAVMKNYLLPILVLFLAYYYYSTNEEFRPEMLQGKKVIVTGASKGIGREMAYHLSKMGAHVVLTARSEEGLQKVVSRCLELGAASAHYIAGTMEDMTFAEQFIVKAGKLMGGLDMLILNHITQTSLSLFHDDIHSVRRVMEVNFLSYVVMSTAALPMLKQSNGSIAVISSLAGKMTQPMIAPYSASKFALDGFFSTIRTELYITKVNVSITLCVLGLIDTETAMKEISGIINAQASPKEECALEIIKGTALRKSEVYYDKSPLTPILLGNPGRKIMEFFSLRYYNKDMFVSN

Compound | pIC50 [1] | pIC50 [2]
CC(C)(Oc1ccc(Cl)cc1)C(=O)N[C@H]1C2C[C@@H]3C[C@@H]1C[C@@](C(=O)NCc1ccncc1)(C2)C3 [(1R,3R,4S,7S)-4-[2-(4-chlorophenoxy)-2-methylpropanamido]-N-(pyridin-4-ylmethyl)adamantane-1-carboxamide] | 7.85 | 7.60
CC(C)(Oc1ccc(Cl)cc1)C(=O)N[C@H]1C2C[C@@H]3C[C@@H]1C[C@@](C(=O)NCc1ccc(S(N)(=O)=O)cc1)(C2)C3 [(1R,3R,4S,7S)-4-[2-(4-chlorophenoxy)-2-methylpropanamido]-N-[(4-sulfamoylphenyl)methyl]adamantane-1-carboxamide] | 7.62 | 7.29
CC(C)(Oc1ccccc1Cl)C(=O)N[C@H]1C2C[C@@H]3C[C@@H]1C[C@@](C(=O)NS(=O)(=O)c1ccccc1)(C2)C3 [(1R,3R,4S,7S)-N-(benzenesulfonyl)-4-[2-(2-chlorophenoxy)-2-methylpropanamido]adamantane-1-carboxamide] | 6.00 | 6.30
CC(C)(Oc1ccc(Cl)cc1)C(=O)N[C@H]1C2C[C@@H]3C[C@@H]1C[C@@](COCC(=O)O)(C2)C3 [2-{[(1R,3R,4S,7S)-4-[2-(4-chlorophenoxy)-2-methylpropanamido]adamantan-1-yl]methoxy}acetic acid] | 6.68 | 6.96
CC(C)(Oc1ccccc1)C(=O)N[C@H]1C2C[C@@H]3C[C@@H]1C[C@@](C(=O)O)(C2)C3 [(1R,3R,4S,7S)-4-(2-methyl-2-phenoxypropanamido)adamantane-1-carboxylic acid] | 6.92 | 
CC(C)(Oc1ccc(Cl)cc1)C(=O)N[C@H]1C2C[C@@H]3C[C@@H]1C[C@@](C(=O)NCc1ccc(-c4nnn[nH]4)cc1)(C2)C3 [(1R,3R,4S,7S)-4-[2-(4-chlorophenoxy)-2-methylpropanamido]-N-{[4-(1H-1,2,3,4-tetrazol-5-yl)phenyl]methyl}adamantane-1-carboxamide] | 7.74 | 
CC(C)(Oc1ccccc1Cl)C(=O)N[C@H]1C2C[C@@H]3C[C@@H]1C[C@@](C(=O)NS(C)(=O)=O)(C2)C3 [(1R,3R,4S,7S)-4-[2-(2-chlorophenoxy)-2-methylpropanamido]-N-methanesulfonyladamantane-1-carboxamide] | 7.55 | 7.02
CC(C)(Oc1ccc(Cl)cc1)C(=O)N[C@H]1C2C[C@@H]3C[C@@H]1C[C@@](C(=O)O)(C2)C3 [(1R,3R,4S,7S)-4-[2-(4-chlorophenoxy)-2-methylpropanamido]adamantane-1-carboxylic acid] | 7.15 | 
CC(C)(Oc1cccc(Cl)c1)C(=O)N[C@H]1C2C[C@@H]3C[C@@H]1C[C@@](C(=O)O)(C2)C3 [(1R,3R,4S,7S)-4-[2-(3-chlorophenoxy)-2-methylpropanamido]adamantane-1-carboxylic acid] | 7.29 | 7.82

Now those with a higher pIC50 [1], led by results:

pIC50 [1] | pIC50 [2] | Compound
8.10 |  | CNC(=O)NC(=O)[C@@]12CC3C[C@H](C[C@H](C1)[C@H]3NC(=O)C(C)(C)Oc1ccc(Cl)cc1)C2 [2-(4-chlorophenoxy)-2-methyl-N-[(1R,2S,5R,7S)-5-{[(methylcarbamoyl)amino]carbonyl}adamantan-2-yl]propanamide]
8.40 |  | CC(C)(Oc1ccc(Cl)cc1)C(=O)N[C@H]1C2C[C@@H]3C[C@@H]1C[C@@](C(=O)NCC(N)=O)(C2)C3 [N-[(1R,2S,5R,7S)-5-[(carbamoylmethyl)carbamoyl]adamantan-2-yl]-2-(4-chlorophenoxy)-2-methylpropanamide]
7.92 |  | CC(C)(Oc1ccc(Cl)cc1)C(=O)N[C@H]1C2C[C@@H]3C[C@@H]1C[C@@](C(=O)NCc1ccc(C(=O)O)cc1)(C2)C3 [4-({[(1R,3R,4S,7S)-4-[2-(4-chlorophenoxy)-2-methylpropanamido]adamantan-1-yl]formamido}methyl)benzoic acid]
8.10 | 8.10 | CC(C)(Oc1ccccc1Cl)C(=O)N[C@H]1C2C[C@@H]3C[C@@H]1C[C@@](C(=O)O)(C2)C3 [(1R,3R,4S,7S)-4-[2-(2-chlorophenoxy)-2-methylpropanamido]adamantane-1-carboxylic acid]
8.52 |  | CC(C)(Oc1ccc(Cl)cc1)C(=O)N[C@H]1C2C[C@@H]3C[C@@H]1C[C@@](C(N)=O)(C2)C3 [(1R,3R,4S,7S)-4-[2-(4-chlorophenoxy)-2-methylpropanamido]adamantane-1-carboxamide]
8.40 |  | CC(C)(Oc1ccccc1)C(=O)N[C@H]1C2C[C@@H]3C[C@@H]1C[C@@](C(N)=O)(C2)C3 [(1R,3R,4S,7S)-4-(2-methyl-2-phenoxypropanamido)adamantane-1-carboxamide]
8.00 |  | CC(C)(Oc1ccc(F)cc1Cl)C(=O)N[C@H]1C2C[C@@H]3C[C@@H]1C[C@@](c1nnn[nH]1)(C2)C3 [2-(2-chloro-4-fluorophenoxy)-2-methyl-N-[(1R,2S,5R,7S)-5-(1H-1,2,3,4-tetrazol-5-yl)adamantan-2-yl]propanamide]
7.96 |  | CC(C)(Oc1ccc(Cl)cc1)C(=O)N[C@H]1C2C[C@@H]3C[C@@H]1C[C@@](C(=O)NCc1cncs1)(C2)C3 [(1R,3R,4S,7S)-4-[2-(4-chlorophenoxy)-2-methylpropanamido]-N-(1,3-thiazol-5-ylmethyl)adamantane-1-carboxamide]
8.40 |  | COc1ccc(OC(C)(C)C(=O)N[C@H]2C3C[C@@H]4C[C@@H]2C[C@@](C(N)=O)(C3)C4)cc1 [(1R,3R,4S,7S)-4-[2-(4-methoxyphenoxy)-2-methylpropanamido]adamantane-1-carboxamide]
8.22 |  | CC(C)(Oc1ccc(Cl)cc1)C(=O)N[C@H]1C2C[C@@H]3C[C@@H]1C[C@@](CO)(C2)C3 [2-(4-chlorophenoxy)-N-[(1R,2S,5R,7S)-5-(hydroxymethyl)adamantan-2-yl]-2-methylpropanamide]
